Experimental data taken from patent US8575157B2, “Cyclic inhibitors of 11beta-hydroxysteroid dehydrogenase 1” (Vitae Pharmaceuticals, Inc., priority 2010, dated 2013).
Where “and” joins values, the source holds several entries; their conditions need not be identical. Identical values can stand only once. Like-named read-outs stand apart in the source and are kept apart here. One block for each compound: values may come before it.

Tests used:
[1] = target: T1, 11β-HSD1 (Homo sapiens (Human), UniProt P28845)
[2] = fraction unbound in human plasma (equilibrium dialysis), Biological Test Example 5; format: in vitro ADME; conditions: for Biological Test Example 5 (%): fraction unbound in human plasma
[3] = target: human recombinant cytochrome P450 2C19 (Homo sapiens (Human), UniProt P33261); assay: CYP2C19 inhibition, Biological Test Example 8; format: in vitro ADME; conditions: read-out: Biological Test Example 8 CYP2C19, IC50
[4] = target: human recombinant cytochrome P450 3A4 (Homo sapiens (Human), UniProt P08684); assay: CYP3A4 inhibition, Biological Test Example 6; format: in vitro ADME
[5] = target: human CYP2C9 (Homo sapiens (Human), UniProt P11712); assay: CYP2C9 inhibition (Invitrogen kit, OOMR fluorogenic substrate), Biological Test Example 9; format: in vitro ADME; conditions: read-out: Biological Test Example 9 CYP2C9 IC50
[6] = target: human recombinant cytochrome P450 2C9 (Homo sapiens (Human), UniProt P11712); assay: CYP2C9 inhibition ([O-methyl-14C]-Naproxen), Biological Test Example 7; format: in vitro ADME
[7] = target: T1, 11β-HSD1; format: biochemical; conditions: human liver microsomes, 100% indicates no inhibition, zero or below zero indicates complete inhibition
[8] = slurry experiment on stability of the crystal form (XRPD); conditions: 30 minutes
[9] = human recombinant CYP2C19, [N-methyl-14C]-Diazepam

human recombinant cytochrome P450 2C9, sequence (P11712 whole entry): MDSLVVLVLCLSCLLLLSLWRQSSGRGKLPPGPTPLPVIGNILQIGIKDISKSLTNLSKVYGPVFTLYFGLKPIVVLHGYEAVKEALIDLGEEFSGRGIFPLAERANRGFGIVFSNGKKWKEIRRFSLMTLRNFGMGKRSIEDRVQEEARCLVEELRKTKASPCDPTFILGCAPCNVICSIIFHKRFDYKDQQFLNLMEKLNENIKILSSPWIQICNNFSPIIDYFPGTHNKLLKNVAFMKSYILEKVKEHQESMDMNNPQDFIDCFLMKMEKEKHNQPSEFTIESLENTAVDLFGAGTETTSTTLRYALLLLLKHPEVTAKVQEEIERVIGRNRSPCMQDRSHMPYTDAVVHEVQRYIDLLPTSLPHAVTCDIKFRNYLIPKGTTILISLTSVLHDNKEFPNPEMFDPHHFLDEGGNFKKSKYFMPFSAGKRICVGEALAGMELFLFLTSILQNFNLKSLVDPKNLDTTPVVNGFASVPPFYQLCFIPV
human recombinant cytochrome P450 3A4, sequence (P08684 whole entry): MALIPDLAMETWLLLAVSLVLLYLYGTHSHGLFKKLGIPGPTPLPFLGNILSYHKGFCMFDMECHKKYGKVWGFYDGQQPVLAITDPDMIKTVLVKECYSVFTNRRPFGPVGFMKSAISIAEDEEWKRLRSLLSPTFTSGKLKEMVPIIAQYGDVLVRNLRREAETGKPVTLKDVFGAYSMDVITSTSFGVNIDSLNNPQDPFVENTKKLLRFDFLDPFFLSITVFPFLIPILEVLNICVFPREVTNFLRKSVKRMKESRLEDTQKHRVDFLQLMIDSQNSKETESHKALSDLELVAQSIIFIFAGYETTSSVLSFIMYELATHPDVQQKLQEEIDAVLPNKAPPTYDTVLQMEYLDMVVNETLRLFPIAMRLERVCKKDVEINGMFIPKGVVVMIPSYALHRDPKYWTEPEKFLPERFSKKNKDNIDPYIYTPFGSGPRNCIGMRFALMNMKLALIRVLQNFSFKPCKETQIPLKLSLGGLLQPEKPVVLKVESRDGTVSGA
T1 sequence (P28845 whole entry): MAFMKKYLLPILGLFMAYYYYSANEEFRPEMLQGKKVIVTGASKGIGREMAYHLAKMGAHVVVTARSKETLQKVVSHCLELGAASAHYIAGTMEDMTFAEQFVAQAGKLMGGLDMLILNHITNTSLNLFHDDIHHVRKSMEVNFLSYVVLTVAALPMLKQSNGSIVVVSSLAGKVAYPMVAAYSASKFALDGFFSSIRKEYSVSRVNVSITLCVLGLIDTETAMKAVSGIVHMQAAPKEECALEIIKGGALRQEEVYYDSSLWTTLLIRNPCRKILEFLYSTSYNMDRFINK
human recombinant cytochrome P450 2C19, sequence (P33261 whole entry): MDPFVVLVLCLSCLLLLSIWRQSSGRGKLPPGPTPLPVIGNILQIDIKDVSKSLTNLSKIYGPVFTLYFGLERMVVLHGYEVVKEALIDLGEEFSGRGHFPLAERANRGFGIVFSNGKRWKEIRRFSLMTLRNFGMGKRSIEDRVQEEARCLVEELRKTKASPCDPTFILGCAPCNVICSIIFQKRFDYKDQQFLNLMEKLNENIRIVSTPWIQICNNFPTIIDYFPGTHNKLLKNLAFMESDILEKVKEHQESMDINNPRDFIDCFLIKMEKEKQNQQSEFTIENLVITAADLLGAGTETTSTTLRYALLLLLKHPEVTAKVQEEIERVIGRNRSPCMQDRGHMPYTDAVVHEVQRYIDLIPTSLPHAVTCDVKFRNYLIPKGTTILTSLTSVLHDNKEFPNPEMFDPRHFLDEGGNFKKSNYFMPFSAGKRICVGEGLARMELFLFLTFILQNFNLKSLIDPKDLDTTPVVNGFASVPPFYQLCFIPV
human CYP2C9, sequence (P11712 whole entry): as the sequence (P11712 whole entry) above

Compound: C[C@@H](c1ccc(-c2ccn(C3CC3)c(=O)c2)cc1)N1CCC(CC(C)(C)O)(C2CCOCC2)OC1=O (single isomer, unassigned) [Example 91 Isomer 2]
Average % inhibition at 100 nM ([1]; Biological Test Example 1): 13.8%

Compound: C[C@@H](c1ccc(-c2ccn(C3CC3)c(=O)c2)cc1)N1CCC(CC(C)(C)C)(CC(C)(C)O)OC1=O (single isomer, unassigned) [Example 94 Isomer 1]
Average % inhibition at 100 nM ([1]; Biological Test Example 1, listed as EXAMPLE 94 Isomer 1): 41.9%

Compound: C[C@@H](c1ccc(-c2ccn(C3CC3)c(=O)c2)cc1)N1CCC(CC(C)(C)C)(CC(C)(C)O)OC1=O (single isomer, unassigned) [Example 94 Isomer 2]
Average % inhibition at 100 nM ([1]; Biological Test Example 1, listed as EXAMPLE 94 Isomer 2): 8.2%

Compound: C[C@@H](c1ccc(-c2ccn(C3CC3)c(=O)c2)cc1)N1CCC(CC(C)(C)O)(C2CC(F)(F)C2)OC1=O (single isomer, unassigned) [Example 95 Isomer 2]
Average % inhibition at 100 nM ([1]; Biological Test Example 1): 8.0%

Biological Test Example 5 (fraction unbound in human plasma) [2]: 0.7%
IC50 ([4]; human recombinant CYP3A4): 14.1 µM
Compound: C[C@@H](c1ccc(-c2ccc(=O)n(C)c2)cc1)N1CC[C@](CC(C)(C)NS(C)(=O)=O)(c2ccccc2)OC1=O [Example 11, N-(2-methyl-1-((S)-3-((S)-1-(4-(1-methyl-6-oxo-1,6-dihydropyridin-3-yl)phenyl)ethyl)-2-oxo-6-phenyl-1,3-oxazinan-6-yl)propan-2-yl)methanesulfonamide]

IC50 ([5]; Invitrogen kit, OOMR fluorogenic substrate): 2.5 µM
Biological Test Example 5 (fraction unbound in human plasma) [2]: 0.4%
IC50 ([4]; human recombinant CYP3A4): 4.9 µM
Compound: C[C@@H](c1ccc(-c2ccc(=O)n(C)c2)cc1)N1CC[C@](CC(C)(C)N(C)S(C)(=O)=O)(c2ccccc2)OC1=O [Example 12, N-methyl-N-(2-methyl-1-((S)-3-((S)-1-(4-(1-methyl-6-oxo-1,6-dihydropyridin-3-yl)phenyl)ethyl)-2-oxo-6-phenyl-1,3-oxazinan-6-yl)propan-2-yl)methanesulfonamide]

IC50 [5]: 30 µM
Biological Test Example 5 (%) [2]: 8.7%
IC50 [6]: > 50 µM
IC50 [3]: > 50 µM
IC50 [4]: > 50 µM
Compound: C[C@@H](c1ccc(-c2ccn(C)c(=O)c2)cc1)N1CC[C@](CC(C)(C)O)(c2ccccc2)OC1=O [Example 48, (S)-6-(2-hydroxy-2-methylpropyl)-3-((S)-1-(4-(1-methyl-2-oxo-1,2-dihydropyridin-4-yl)phenyl)ethyl)-6-phenyl-1,3-oxazinan-2-one]

Biological Test Example 5 (%) [2]: 9.0%
Compound: CC[C@@H](c1ccc(-c2ccc(=O)n(CC)c2)cc1)N1CC[C@](CC(C)(C)O)(c2ccccc2)OC1=O [Example 52, (S)-3-((S)-1-(4-(1-ethyl-6-oxo-1,6-dihydropyridin-3-yl)phenyl)propyl)-6-(2-hydroxy-2-methylpropyl)-6-phenyl-1,3-oxazinan-2-one]

Biological Test Example 5 (%) [2]: 9.1%
IC50 [6]: > 50 µM
IC50 [4]: > 50 µM
Compound: CC[C@@H](c1ccc(-c2ccc(=O)n(C)c2)cc1)N1CC[C@](CC(C)(C)O)(c2ccccc2)OC1=O [Example 54, (S)-6-(2-hydroxy-2-methylpropyl)-3-((S)-1-(4-(1-methyl-6-oxo-1,6-dihydropyridin-3-yl)phenyl)propyl)-6-phenyl-1,3-oxazinan-2-one]

Biological Test Example 5 (%) [2]: 7.1%
Compound: CC[C@@H](c1ccc(-c2ccn(C)c(=O)c2)cc1)N1CC[C@](CC(C)(C)O)(c2ccccc2)OC1=O [Example 55, (S)-6-(2-hydroxy-2-methylpropyl)-3-((S)-1-(4-(1-methyl-2-oxo-1,2-dihydropyridin-4-yl)phenyl)propyl)-6-phenyl-1,3-oxazinan-2-one]

Biological Test Example 5 (%) [2]: 5.5%
Compound: C[C@@H](c1ccc(-c2ccn(CC(F)(F)F)c(=O)c2)cc1)N1CC[C@](CC(C)(C)O)(c2ccccc2)OC1=O [Example 66, (S)-6-(2-hydroxy-2-methylpropyl)-3-((S)-1-(4-(2-oxo-1-(2,2,2-trifluoroethyl)-1,2-dihydropyridin-4-yl)phenyl)ethyl)-6-phenyl-1,3-oxazinan-2-one]

Compound: C[C@@H](c1ccc(-c2cc(=O)n(C)cc2F)cc1)N1CC[C@](CC(C)(C)O)(c2ccccc2)OC1=O [Example 79, 3-{(S)-1-[4-(5-Fluoro-1-methyl-2-oxo-1,2-dihydro-pyridin-4-yl)-phenyl]-ethyl}-(S)-6-(2-hydroxy-2-methyl-propyl)-6-phenyl-[1,3]oxazinan-2-one]
IC50 [6]: > 50 µM
IC50 [3]: > 50 µM
Average % control inhibition at 100 nM [7]: 15 % control
IC50 [4]: > 50 µM

Compound: C[C@@H](c1ccc(-c2ccn(CC(C)(C)O)c(=O)c2)cc1)N1CC[C@](CC(C)(C)O)(c2ccccc2)OC1=O [Example 80, (S)-6-(2-Hydroxy-2-methyl-propyl)-3-((S)-1-{4-[1-(2-hydroxy-2-methyl-propyl)-2-oxo-1,2-dihydro-pyridin-4-yl]-phenyl}-ethyl)-6-phenyl-[1,3]oxazinan-2-one]
IC50 [6]: > 50 µM
Average % control inhibition at 100 nM [7]: 37 % control
IC50 [4]: > 50 µM

Compound: COCC(C)Cn1ccc(-c2ccc([C@H](C)N3CC[C@](CC(C)(C)O)(c4ccccc4)OC3=O)cc2)cc1=O (stereo partly drawn) [Example 81, (S)-6-(2-Hydroxy-2-methyl-propyl)-3-((S)-1-{4-[1-(3-methoxy-2-methyl-propyl)-2-oxo-1,2-dihydro-pyridin-4-yl]-phenyl}-ethyl)-6-phenyl-[1,3]oxazinan-2-one]
Average % control inhibition at 100 nM [7]: 11 % control

Compound: CC(CO)Cn1ccc(-c2ccc([C@H](C)N3CC[C@](CC(C)(C)O)(c4ccccc4)OC3=O)cc2)cc1=O (stereo partly drawn) [Example 82, (S)-6-(2-Hydroxy-2-methyl-propyl)-3-((S)-1-{4-[1-(3-hydroxy-2-methyl-propyl)-2-oxo-1,2-dihydro-pyridin-4-yl]-phenyl}-ethyl)-6-phenyl-[1,3]oxazinan-2-one]
Average % control inhibition at 100 nM [7]: −12 % control

Compound: COC(C)(C)Cn1ccc(-c2ccc([C@H](C)N3CC[C@](CC(C)(C)O)(c4ccccc4)OC3=O)cc2)cc1=O [Example 83, (S)-6-(2-Hydroxy-2-methyl-propyl)-3-(1-{4-[1-(2-methoxy-2-methyl-propyl)-2-oxo-1,2-dihydro-pyridin-4-yl]-phenyl}-ethyl)-6-phenyl-[1,3]oxazinan-2-one]
Average % control inhibition at 100 nM [7]: 54 % control

Compound: C[C@@H](c1ccc(-c2ccn(CC(C)(C)CO)c(=O)c2)cc1)N1CC[C@](CC(C)(C)O)(c2ccccc2)OC1=O [Example 90, 3-((S)-1-{4-[1-(3-Hydroxy-2,2-dimethyl-propyl)-2-oxo-1,2-dihydro-pyridin-4-yl]-phenyl}-ethyl)-(S)-6-(2-hydroxy-2-methyl-propyl)-6-phenyl-[1,3]oxazinan-2-one]
Average % control inhibition at 100 nM [7]: 4 % control

remaining in the anhydrous state during the measurement by XRPD [8]: did not remain in the anhydrous state
Compound: C[C@@H](c1ccc(-c2ccn(C)c(=O)c2)cc1)N1CC[C@](CC(C)(C)O)(c2ccccc2)OC1=O [anhydrous form of Example 48, (S)-6-(2-hydroxy-2-methylpropyl)-3-((S)-1-(4-(1-methyl-2-oxo-1,2-dihydropyridin-4-yl)phenyl)ethyl)-6-phenyl-1,3-oxazinan-2-one]

remaining in the anhydrous state during the measurement by XRPD [8]: did not remain in the anhydrous state
Compound: C[C@@H](c1ccc(-c2ccn(C3CC3)c(=O)c2)cc1)N1CC[C@](CC(C)(C)O)(c2ccccc2)OC1=O [anhydrous form of Example 75, 3-{(S)-1-[4-(1-Cyclopropyl-2-oxo-1,2-dihydro-pyridin-4-yl)-phenyl]-ethyl}-(S)-6-(2-hydroxy-2-methyl-propyl)-6-phenyl-[1,3]oxazinan-2-one]
